This note sets out measurements from patent US20130273181A1, “METHODS AND COMPOSITIONS FOR DIAGNOSING AND TREATING MUSCLE MYOPATHY DISORDERS” (The Regents of the University of Colorado, a body Corporate, priority 2012, published 2013).

Structures are written as SMILES. Entries after “also recorded” stand apart in the source; their conditions may differ. Like-named read-outs stand apart in the source and are kept apart here. Where only a bound is given, the exact number is not on record here.

In assay [1] the test system is Ryr1^m1Nisw/m1Nisw E18.5 diaphragm muscle. The assay can be described thus: EMG recordings / contractility of explanted E18.5 diaphragm muscle. It counts as cell-based, mouse. The settings on record: for contractions / contractility (in words): bath application, KCl 6 mM, BaCl2 100 μM, potassium gluconate 6 mM, BayK8644 100 nM; for contractions / contractility (in words) / Minutes to Contraction (Stand. Dev): PMA 50 nM, AICAR 500 μM; for contractions / contractility (in words) / Minutes to Contraction (Stand. Dev) / bath application time after which contractions were elicited: Glibenclamide 2 μM, 5HA 200 μM; for Minutes to Contraction (Stand. Dev): EMG recordings, electrically stimulated; for bath application time after which contractions were elicited / explants showing contractions: n=6 for each; for explants showing contractions: after 1 hour bath application. How it is done:
(§1) In other methods, whether increasing the excitability in E18.5 Ryr1^m1Nisw/m1Nisw whole diaphragm muscle could force the DHPR-RyR1 complex to initiate contractility was examined. In one exemplary method, electromyography recordings (EMG) was performed to examine whether whole muscle in vitro was sensitive to potassium-dependent depolarization by adding potassium to the bath to depolarize the membrane. […] Potassium induced excitability can also be triggered by blocking inward rectifier potassium channels.
(§2) DHPR and RyR1 interact through orthograde and retrograde signaling, but the Ryr1^m1Nisw/m1Nisw mutation is not located within this interaction region. Orthograde signaling from DHPR opens the RyR1 channel in the SR, while retrograde signaling from RyR1 controls the gating of DHPR.
(§3) FIG. 2g represents an exemplary graph of contractility of E18.5 diaphragm muscle from Ryr1^+/+, Ryr1^m1Nisw/m1Nisw, or RyR1^tm1Alle/tm1Alle embryos. After equilibration, all samples were bathed first in 6 mM KCl, followed by wash out and then addition of 100 μm BaCl as indicated. […] FIG. 2h provides an exemplary graph of contractility of E18.5 diaphragm muscle from Ryr1^+/+, Ryr1^m1Nisw/m1Nisw and RyR1^tm1Alle/tm1Alle embryos in 6 mM potassium gluconate (n=4).
(§4) In myotubes, the application of ryanodine at levels that activate RyR increases ERK1/2 protein levels and c-Fos and c-Jun transcript levels. ERK1/2 phosphorylates the most abundant potassium transport protein, Na^+, K^+-ATPase, which, in turn, induces an increase in ion transport. Na^+, K^+-ATPase is essential for maintaining the equilibrium potential of Na^+ and K^+ at the membrane. In one exemplary method, western blot was performed to analyze certain protein levels in Ryr1^m1Nisw/m1Nisw and Ryr1^tm1Alle/tm1Alle embryonic muscle extracts with beta-tubulin served as a loading control. […] In another exemplary method, Phorbol-12-myristate-13-acetate (PMA 50 nM), an activator of ERK1/2 phosphorylation, was applied to the bath of in vitro Ryr1^m1Nisw/m1Nisw diaphragm preparation to increase the phosphorylation of Na^+, K^+-ATPase.
(§5) In certain exemplary methods, restoration of membrane potential and muscle contractions by pharmacological stimulation was tested. First, effect of stimulation of AMPK activity on restoring the resting membrane potential of the mutant diaphragm muscle was determined. An AMPK activator, e.g. 5-aminoimidazole-4-carboxamide-1-β-d-ribofuranoside (AICAR, 500 μM), was bath applied to explanted Ryr1^m1Nisw/m1Nisw E18.5 diaphragm muscles. […] Next, other pharmacological stimuli were examined. […] Glibenclamide (2 μM) and 5-hydrodecanoic acid (5HA, 200 μM) selectively bind to SUR1 and SUR2 to block ATP-sensitive K^+ channels.

Assay [2] concerns Ryr1^tm1Alle/tm1Alle diaphragm muscle. The assay can be described thus: Contractility of explanted E18.5 diaphragm muscle, Ryr1 null. The following applies: same bath concentrations. It counts as cell-based, mouse. How it is done:
as §1, §2, §3, §4, §5

Assay [3] deals with Ryr1^m1Nisw/m1Nisw diaphragm muscle. Nature of the assay: Sharp electrode recordings of resting membrane potential of diaphragm muscle. It counts as cell-based, mouse. The following applies: for resting membrane potential (in words): Glibenclamide 2 μM, AICAR 500 μM; for resting membrane potential (in words) / resting membrane potential after treatment: PMA 50 nM; for resting membrane potential after treatment / shift in membrane potential: sharp electrode; for resting membrane potential after treatment: BaCl2 n=27; for shift in membrane potential: PMA 50 nM vs ethanol, AICAR 500 μM n=18. How it is done: Therefore, in some exemplary methods, whether voltage dependent orthograde signaling through the DHPR-RyR1 complex could be initiated through changes in membrane potential was first assessed.
as §1, §4, §5

The subject of another assay is soleus muscle. Nature of the assay: Steady-state membrane potential (VREST) of two month old soleus muscle at varied extracellular potassium. It counts as cell-based, mouse. The following applies: for VREST after drug addition: control 0.6% potassium diet, independent of extracellular potassium.
Assay [4] has as its system Ryr1^m1Nisw/+ mice. The assay can be described thus: Grip strength test (vertical digital push-pull strain gauge). It counts as in vivo, mouse. The following applies: 2 month old, four weeks of diet, Enalapril in water, or Glyburide 15 mg/kg/day oral gavage.
Assay [5] deals with Ryr1^m1Nisw/+ mice. The assay can be described thus: Hanging wire task (upper body muscle strength). The settings on record: four weeks of diet, Enalapril in water, or Glyburide 15 mg/kg/day oral gavage. The assay is classed as in vivo, mouse.
The test system of assay [6] is Ryr1^m1Nisw/+ vastus lateralis muscle. Nature of the assay: Muscle histology (H&E central nuclei, COX staining) of vastus lateralis. It counts as in vivo, mouse. The following applies: after four weeks treatment. From the text:
CCD is diagnosed and subclassified by histopathological analysis using stains such as cytochrome oxidase (COX) and nicotinamide adenine dinucleotide hydride-tetrazolium reductase (NADH-TR) which highlight mitochondria and ATP synthesis, and hematoxylin and eosin stain (H&E) to mark nuclei. In normal muscle, nuclei are located at the periphery of the myofiber and the mitochondria reside throughout the myofiber. Muscle biopsies of CCD patients show centrally located nuclei, as well as disorganized areas in the center of the myofiber called cores that lack mitochondria and are devoid of metabolic activity; these occur in some but not all muscles and are reflective of cellular damage.
Pathological examination is the hallmark diagnosis of CCD. In one exemplary method, the effects of diet on muscle histology were studied. Centrally located nuclei and decreased mitochondrial activity were detected in Ryr1^m1Nisw/+ vastus lateralis muscle compared to Ryr1^+/+ muscle in low potassium and control diets (FIGS. 5c-5k). […] In addition, the CCD phenotype was also rescued by 5-hydrodecanoic acid (5HA), which blocks ATP-sensitive K^+ channels (FIG. 4 and Table 2). […]

[7] abbreviates: RyR1^m1Nisw/+ soleus muscle, bumetanide 75 μM, BaCl2 50 μM.
Setting [8] is: RyR1^m1Nisw/+ soleus muscle, bumetanide 75 μM, BaCl2 50 μM, Glibenclamide 2 μM, or chronic 5.2% potassium diet.
The mark [9] stands for this setting: wild type muscle, low extracellular potassium / Tetanus, bumetanide 75 μM, BaCl2 50 μM, Glibenclamide 2 μM.

With `O=C([O-])[C@H](O)[C@@H](O)[C@H](O)[C@H](O)CO.[K+]` [potassium gluconate], the “contractions / contractility (in words)” value in assay [1] was “Contractions also transpired”.

On to `CCCCCCCCCCCCCC(=O)O[C@@H]1[C@@H](C)[C@@]2(O)[C@@H](C=C(CO)C[C@]3(O)C(=O)C(C)=C[C@@H]23)[C@@H]2C(C)(C)[C@]12OC(C)=O` [PMA, Phorbol-12-myristate-13-acetate], for which, in assay [1], the “time to contraction after addition” value was not above 5 min, the “Minutes to Contraction (Stand. Dev)” value was 4 (2) Minutes and the “contractions / contractility (in words)” value is listed as “strongly elicited contractions”. For the same molecule, the “contractions / contractility (in words)” value in assay [2] is “no effect”. Further, in assay [3], the “resting membrane potential (in words)” value is “normalized the membrane potential”, the “resting membrane potential after treatment” value is −67.7 mV and the “shift in membrane potential” value was −18.3+/−5.3 mV.

With `CCCCNc1cc(C(=O)O)cc(S(N)(=O)=O)c1Oc1ccccc1` [bumetanide], the “VREST after drug addition” value in the assay with soleus muscle (setting [7]) is on record as −92.3+/−4.8 mV. For the same molecule, the “VREST phase (in words)” value with soleus muscle (setting [8]) and in the assay with soleus muscle (setting [9]) was “driven to phase 1” each time.

Take `[Ba+2].[Cl-].[Cl-]` [BaCl2]: the “contractions / contractility (in words)” value is “induced stimulated bursts of activity and contractions” in assay [1]; “rescued” in assay [1] (listed as BaCl); “failed to contract” in assay [2] (listed as BaCl). Also, the “resting membrane potential after treatment” value in assay [3] was −68.5 mV. The “VREST phase (in words)” value in the assay on soleus muscle and in the assay on soleus muscle (setting [8]) was “driven to phase 2” in each case. Besides, the “VREST after drug addition” value in the assay on soleus muscle (setting [7]) is listed as −91.7+/−3.8 mV.

For `COC(=O)C1=C(C)NC(C)=C([N+](=O)[O-])C1c1ccccc1C(F)(F)F` (stereo not shown) [BayK8644], the “contractions / contractility (in words)” value in assay [1] is listed as “induced contractions within minutes”; in assay [2], “no contractions occurred”.

`CCOC(=O)[C@H](CCc1ccccc1)N[C@@H](C)C(=O)N1CCC[C@H]1C(=O)O` [Enalapril]: the “grip strength (in words)” value in the assay on Ryr1^m1Nisw/+ mice [4] is “increased grip strength”. Further, the “muscle strength in hanging task (in words)” value with Ryr1^m1Nisw/+ mice [5] was “increased grip strength and muscle strength; also recorded: partial rescue of muscle strength”. Moreover, in assay [6], the “centrally located nuclei / muscle histology (H&E)” value was “mild improvement in muscle histology”.

For `COc1ccc(Cl)cc1C(=O)NCCc1ccc(S(=O)(=O)NC(=O)NC2CCCCC2)cc1` [Glibenclamide], in assay [1], the “Minutes to Contraction (Stand. Dev)” value was 67 (34) Minutes, the “bath application time after which contractions were elicited” value was found to be 2 h and the explants showing contractions is 50%. In addition, in assay [3], the “resting membrane potential (in words)” value is “normalized the resting membrane potential”. The “grip strength (in words)” value in the assay on Ryr1^m1Nisw/+ mice [4] is “Increased grip and hanging strength”. For the same molecule, in the assay with Ryr1^m1Nisw/+ mice [5], the “muscle strength in hanging task (in words)” value is “increased grip strength and muscle strength; also recorded: Increased grip and hanging strength”. In addition, in assay [6] (listed as Glyburide), the “centrally located nuclei / muscle histology (H&E)” value was “lack of centrally-located nuclei; also recorded: rescue the clinical and pathological manifestations of CCD; also recorded: significant reduction in the number of internal nuclei”. The “VREST phase (in words)” value in the assay on soleus muscle (setting [8]) is reported as “rescued the phase 2 VREST to phase 1”. In addition, the “VREST phase (in words)” value with soleus muscle (setting [9]) is “protected against phase 2 shifting from phase 1”.

Regarding `CCCCCC(O)CCCC(=O)O` (stereo not shown) [5HA, 5-hydrodecanoic acid], in assay [1], the “Minutes to Contraction (Stand. Dev)” value is 106 (52) Minutes, the “bath application time after which contractions were elicited” value came out at 2 h, the explants showing contractions was found to be 50% and the “contractions / contractility (in words)” value was “rescued”.

`[Cl-].[K+]` [KCl]: the “contractions / contractility (in words)” value in assay [1] is “induced bursts of electrical activity and contractions; also recorded: rescued”; in assay [2], “failed to contract”.

For `NC(=O)c1ncn([C@@H]2O[C@H](CO)[C@@H](O)[C@H]2O)c1N` [AICAR, 5-aminoimidazole-4-carboxamide-1-β-d-ribofuranoside], in assay [1], the “Minutes to Contraction (Stand. Dev)” value is given as “None” and the “contractions / contractility (in words)” value is “unable to initiate contractions”. Further, the “contractions / contractility (in words)” value in assay [2] is “unable to initiate contractions”. In addition, in assay [3], the “resting membrane potential (in words)” value is reported as “restore the mutant resting membrane potential to normal levels” and the “shift in membrane potential” value is given as −10.4+/−3.9 mV.
